# Literature values as cited in patent US4279898A, “In vivo inhibitors of cholesterol biosynthesis” (Research Foundation of the City University of New York, priority 1980, dated 1981).
# Test system: 5-phosphomevalonate kinase
# Conditions: publications by the inventors
structure (smiles),measurement,value
CC(O)(CCCP(=O)(O)O)CC(=O)O (stereo not shown) [5-carboxy-4-hydroxy-4-methylpentyl-1-phosphonic acid],inhibition of 5-phosphomevalonate kinase,inhibition
